Results taken from patent publication US20240156718A1, “TOPICAL COMPOSITION AND USE THEREOF” (BLIS TECHNOLOGIES LIMITED, priority 2021, published 2024).

Columns and labels:
[1] = system: M. luteus Q24; assay: Inhibition by potential prebiotics spotted on a Q24 lawn; format: cell-based, Streptococcus salivarius; conditions: 20 μL spots, 24 hours at 37° C.; for Suitable to be used in Q24 containing serum/product?: 100% to 0.3% (oils at 100% only); for inhibitory concentration vs Blis Q24: 100% to 0.3%
Procedure: CABK12 agar plates were split into segments of 6 and […] suspension of M. luteus […] raw ingredient P3. Each of the aqueous potential prebiotic substances to be screened were serially diluted in a range of concentrations from 100% to 0.3% using sterile distilled water. Oil based substances were tested at 100% only. 20 μL of each concentration, of each substance were pipetted into a spot onto one segment of the […]12 agar plate and was incubated for 24 hours at 37° C. 5% CO2 in air.

[2] = system: EpiDerm tissues; assay: EpiDerm anti-inflammatory effect, cytokine release in response to 0.5% SDS; format: cell-based, human; conditions: pre-treatment, day 5 vs day 4
Procedure: (§1) The maturation of 36 immature EpiDerm tissues was performed as described above. The fully differentiated tissues were numbered from 1-36 and were randomly assigned to receive one of the treatments shown in Table 3. This was done such that each of the 6 combinations of main treatment (PBS, Q24 or vitamin C) and 0.5% SDS exposure treatment (±0.5% SDS) was randomly represented on each of five 6-well cell culture plates. The remaining 6 tissues, which were destined for histology or else to receive 5% SDS, were grouped together on the sixth cell culture plate. Following maturation, the 36 tissues were cultured in the assay medium for 24 h at 37° C. in a 5% CO2 atmosphere, after which the baseline (day 0) conditioned media samples were collected and stored frozen at −80° C. for cytokine measurement. […] The viabilities of the other 33 tissues were assessed using the MTT viability assay.
(§2) For quantification of IL-1β, IFN-α2, IFN-γ, TNF-α, MCP-1 (CCL2), IL-6, IL-8 (CXCL8), IL-10, IL-12p70, IL-17A, 1L-18, IL-23, and IL-33, bead-based multiplex LEGENDplex™ analysis(LEGENDplex™ Human Inflammation Panel 1 (13-plea); BioLegend, San Diego, CA, USA) was used according to the manufacturer's instructions. The relevance of each of the measured cytokines is described in Table 4. […] Data were analysed via Legendplex V8.0 software (BioLegend) and specified as pg/mL.

[3] = system: EpiDerm tissues; assay: EpiDerm safety experiment, cytokine levels day 0 and day 4; format: cell-based, human; conditions: Blis Q24 1×10^8 CFU/ml or vitamin C 50 μg/mL
Procedure: Upon receipt, the final development of the immature EpiDerm (EPI-201-4D; MatTekCorporation, Ashland, MA, USA) tissues was completed following the manufacturer's instructions. In brief, the tissues were transferred from the agarose-containing gel on which they were shipped to cell culture plates containing pre-warmed differentiation medium (EPI-201-DM). They were then maintained at 37° C. in a 5% CO2 atmosphere for 4 days, with 2 or […] changes to fresh differentiation medium during that period. Finally, the fully developed EpiDerm tissues were transferred to fresh plates containing standard culture medium (EPI-100-NMM) for use in each experiment.
as §1, §2

[4] = system: Blis Q24; assay: Effect of prebiotics on the growth of Blis Q24 in M17 broth; format: cell-based, Micrococcus luteus; conditions: 5% prebiotic in M17 broth
Procedure: A batch of M17 broth (Difco #218561) was made, excluding the lactose solution, by following the manufacturer's instructions. 50 ml of broth was dispensed into sterile 100 ml Schott bottles and 2.5 g (5%) of each potential prebiotic substance was added and mixed well using a magnetic stirrer and stir plate. The mixtures were autoclaved at 110° C. for 10 minutes and allowed to cool. The suspensions of the prebiotic candidates were prewarmed to 40° C. in order to allow for increased homogenisation of any oil-based components prior to dispensing into the wells. 2 ml of each suspension and an M17 only (control) were pipetted into a sterile 24 well tissue culture plate. A suspension of […] raw ingredient P3 was made in PBS and adjusted to an optical density of 0.125. 100 μl of the suspension was pipetted into each well. Once the suspension was added each well was mixed by aspirating and dispensing the solution 5 times with a 1 ml pipette. Each sample was enumerated at time points 0, 3, 6, 15, 26 and 34 hours using the following method. […] The number of colonies in each spot were then counted using an electronic colony counter and average to give the final result. […] Olive squalene was selected as one of the preferred prebiotics with 3 others that were analysed in combination with olive squalene and compared to the results of the prebiotic candidates alone (FIG. 13).

[5] = system: skin commensals S. epidermidis #4, S. epidermidis E30, S. hominis ATCC 27844; assay: Prebiotic activity against skin commensals (growth); format: cell-based; conditions: FIG. 14
Procedure: The same method was used as above for Blis Q24 ingredient except the suspensions with optical density of 0.125 were prepared for each of the 3 selected skin commensals.
The skin commensals selected were: • S. epidermidis #4—Sensitive to Q24 inhibition • S. epidermidis E30—Resistant to Q24 inhibition • S. hominis ATCC 27844—Mixed resistance condition dependent

Compound	Suitable to be used in Q24 containing serum/product? [1]	also measured
O=C(O)c1ccccc1O [Salicylic acid (SA), Salicylic acid]	No	inhibitory concentration vs Blis Q24 [1]: > 5%
O=C1O[C@H]([C@@H](O)CO)C(O)=C1O [Vitamin C (Ascorbic acid), Ascorbic acid]	Yes	IL-6 released in response to 0.5% SDS [2]: slight increase; IL-6 levels, day 4 vs day 0 ([3]; daily for 4 days): slight but significant increase; IL-8 levels, day 4 vs day 0 ([3]; daily for 4 days): unchanged; IL-18 levels, day 4 vs day 0 ([3]; no significant differences): trend for lower values
OC[C@@H](O)[C@H](O)[C@@H](O)CO [Xylitol]	Yes	growth of Q24 compared to the control [4]: detrimental to the live Q24 cell count at 24 hours
Cc1c(C)c2c(c(C)c1O)CC[C@@](C)(CCC[C@H](C)CCC[C@H](C)CCCC(C)C)O2 [Vitamin E, D Alpha Tocopherol 1000IU, D Alpha Tocopherol]	Yes	–
Hyaluronic acid	Yes	–
CC(O)C(=O)O (stereo not drawn) [Lactic acid (LA), Lactic acid]	No	inhibitory concentration vs Blis Q24 [1]: > 2.5%
NC(=O)NC1NC(=O)NC1=O (stereo not drawn) [Allantoin]	Yes	–
NC(=O)c1cccnc1 [Niacinamide]	Yes	–
CC(C)=CCC/C(C)=C/CC/C(C)=C/CC/C=C(\C)CC/C=C(\C)CCC=C(C)C [Olive Squalene]	Yes	growth of skin commensals compared to control media [5]: do not offer any advantage
CC1=C(/C=C/C(C)=C/C=C/C(C)=C/CO)C(C)(C)CCC1 [Retinol (Vitamin A), Retinol]	Yes	–
